Measurements reported in ChEMBL document CHEMBL1201862, “PubChem BioAssay data set” (2004).
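Dose response: 5 concentrations. Exposure: 48 h. Format: 96-well plates. Endpoint: linear interpolation; highest concentration if not reached. GI50 marks 50% less growth.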 Activity calls are given as the source filed them. Rule as the data show it: active = GI50 up to about 1.1 µM and inactive = higher.

Tests used:
Assay in all cases: NCI tumour cell line growth inhibition, 48 h
CAKI-1 = system: CAKI-1
CCRF-CEM = system: CCRF-CEM
DMS-114 = system: DMS-114
DMS-273 = system: DMS-273
EKVX = system: EKVX
NCI-H226 = system: NCI-H226
RXF 393 = system: RXF 393
SF-268 = system: SF-268
SF-295 = system: SF-295
SK-MEL-2 = system: SK-MEL-2
SNB-75 = system: SNB-75
SNB-78 = system: SNB-78
SW-620 = system: SW-620
HCT-116 = system: HCT-116
NCI-H460 = system: NCI-H460
U-251 = system: U-251
SR = system: SR

Compound | GI50 (CAKI-1) | GI50 (CCRF-CEM) | GI50 (DMS-114) | GI50 (DMS-273) | GI50 (EKVX) | GI50 (NCI-H226) | GI50 (RXF 393) | GI50 (SF-268) | GI50 (SF-295) | GI50 (SK-MEL-2) | GI50 (SNB-75) | GI50 (SNB-78) | GI50 (SW-620) | GI50 (HCT-116) | GI50 (NCI-H460) | GI50 (U-251) | GI50 (SR)
O=C1[C@@H](c2ccc(Cl)cc2)[C@H]2CC=C[C@H]2N1O | > 100 µM (inactive) | 51.2 µM (inactive) | 41.5 µM (inactive) | > 100 µM (inactive) | > 100 µM (inactive) | > 100 µM (inactive) | 14.3 µM (inactive) | > 100 µM (inactive) | > 100 µM (inactive) | > 100 µM (inactive) | > 100 µM (inactive) | > 100 µM (inactive) | > 100 µM (inactive) |  |  |  | 
CCCCSN1C(=O)c2ccccc2C1=S | 32.6 µM (inactive) | 15.9 µM (inactive) | 45.5 µM (inactive) | 45.3 µM (inactive) | > 100 µM (inactive) |  | 81.3 µM (inactive) | 48.9 µM (inactive) | 39.3 µM (inactive) | 34.4 µM (inactive) | 72.4 µM (inactive) | 49.3 µM (inactive) | 32.9 µM (inactive) | 40.6 µM (inactive) | > 100 µM (inactive) | > 100 µM (inactive) | 
CCNC1=Nc2ccc(Cl)cc2C(c2ccccc2)=NN1 | 15 µM (inactive) | 38.4 µM (inactive) | 15.4 µM (inactive) | 10.9 µM (inactive) | 45.9 µM (inactive) | 20.7 µM (inactive) | 25.5 µM (inactive) | 31.3 µM (inactive) | 19.2 µM (inactive) | 16.7 µM (inactive) | 19 µM (inactive) | 25.5 µM (inactive) | 18 µM (inactive) |  |  | 20.5 µM (inactive) | 
CCc1cccc(C)c1NC(=O)NS(=O)(=O)c1ccc(C)cc1 | > 100 µM (inactive) | > 100 µM (inactive) | > 100 µM (inactive) | > 100 µM (inactive) | > 100 µM (inactive) |  | > 100 µM (inactive) | > 100 µM (inactive) | > 100 µM (inactive) | > 100 µM (inactive) | 35.2 µM (inactive) | > 100 µM (inactive) | > 100 µM (inactive) | > 100 µM (inactive) | > 100 µM (inactive) | > 100 µM (inactive) | 
Cc1cc(Cl)ccc1NC(=O)CC1SC(N)=NC1=O (configuration not stated) | > 100 µM (inactive) | 66.4 µM (inactive) | > 100 µM (inactive) | > 100 µM (inactive) | > 100 µM (inactive) | > 100 µM (inactive) | > 100 µM (inactive) | > 100 µM (inactive) | > 100 µM (inactive) | > 100 µM (inactive) | > 100 µM (inactive) |  | > 100 µM (inactive) |  | > 100 µM (inactive) | > 100 µM (inactive) | 
O=C(O)COc1ccc(C(=O)/C(SS/C(C(=O)c2ccc(OCC(=O)O)c(Cl)c2Cl)=C2\C=C(c3ccc(Cl)cc3)SS2)=C2/C=C(c3ccc(Cl)cc3)SS2)c(Cl)c1Cl | 28.1 µM (inactive) | 2.29 µM (inactive) |  | 18.1 µM (inactive) | 57.1 µM (inactive) | 5.66 µM (inactive) |  | 11.2 µM (inactive) | 18.2 µM (inactive) | 14.1 µM (inactive) | 11.1 µM (inactive) | 6.7 µM (inactive) | 0.435 µM (active) | 9.08 µM (inactive) | 19.1 µM (inactive) | 4.2 µM (inactive) | 
CCN(CC)CCCCC1CCN(CC(=O)N2CC(C)C(=O)Nc3ccccc32)CC1 (configuration not stated) | > 100 µM (inactive) | > 100 µM (inactive) | > 100 µM (inactive) | > 100 µM (inactive) |  | > 100 µM (inactive) |  | > 100 µM (inactive) | > 100 µM (inactive) |  |  |  | > 100 µM (inactive) | > 100 µM (inactive) | > 100 µM (inactive) | > 100 µM (inactive) | > 100 µM (inactive)
